Experiment: logP by HPLC on reversed phase columns (EEC directive 79/831 Annex V.A8)
Type: physicochemical
Conditions: method [a]: LC-MS at pH 2.7, 0.1% formic acid in water / acetonitrile
[1] = amines of formula (III-a), Table 2
[2] = compounds of formula (I), Table 1

Row | logP [1] | logP [2] | SMILES | also measured
1 | 2.94[a] | – | Nc1cccc2c1CC(C1CCCC1)C2 (centres unmarked) [III-a-11] | –
2 | – | 3.99[a] | Cc1c(C(=O)Nc2cccc3c2CC(C)C3(C)C)c(C(F)(F)Cl)nn1C (centres unmarked) [Example 72] | –
3 | – | 4.06[a] | CCc1nn(C)cc1C(=O)Nc1cccc2c1CC(CC)(CC)C2C (racemic) [Example 82] | –
4 | – | 3.83[a] | CCc1c(C(=O)Nc2cccc3c2CC(CC)C3(C)C)cnn1C (racemic) [Example 63] | –
5 | 2.4[a] | – | CC1c2c(N)cccc2C(C)(C)C1C (centres unmarked) [Example III-a-14] | –
6 | – | 4.46[a] | CC1Cc2c(NC(=O)c3c(C4CC4)nn(C)c3Cl)cccc2C1(C)C (racemic) [Example 78] | –
7 | – | 4.86[a] | Cc1nn(C)c(C(F)(F)Cl)c1C(=O)Nc1cccc2c1CC(C(C)C)C2(C)C (centres unmarked) [Example 53] | –
8 | 2.63[a] | – | CCC1(CC)Cc2c(N)cccc2C1C (centres unmarked) [Example III-a-18] | –
9 | 1.76[a] | – | CCC1Cc2cccc(N)c2C1 (centres unmarked) [III-a-6] | –
10 | – | 4.21[a] | CCc1c(C(=O)Nc2cccc3c2CC(C(C)C)C3(C)C)cnn1C (centres unmarked) [Example 46] | –
11 | – | 4.21[a] | CC1Cc2c(NC(=O)c3cn(C)nc3C(F)(F)C(F)(F)F)cccc2C1(C)C (racemic) [Example 85] | –
12 | 2.8[a] | – | CC(C)C1Cc2c(N)cccc2C1(C)C (racemic) [Example III-a-2] | –
13 | 2.08[a] | – | CON=C1c2cccc(N)c2CC1(C)C [III-a-12] | –
14 | 2.34[a] | – | CC(C)C1Cc2c(N)cccc2C1C (centres unmarked) [Example III-a-5] | –
15 | – | 4.51[a] | CCCc1nn(C)cc1C(=O)Nc1cccc2c1CC(C(C)C)C2(C)C (centres unmarked) [Example 47] | –
16 | 1.95[a] | – | CC1Cc2c(N)cccc2C1(C)C (racemic) [Example III-a-3] | –

Row | logP [1] | logP [2] | SMILES | also measured
17 | 2.1[a] | – | Nc1cccc2c1CC1(CCCC1)C2 [III-a-4] | –
18 | – | 3.67[a] | CC1Cc2c(NC(=O)c3cn(C)nc3[N+](=O)[O-])cccc2C1(C)C (racemic) [Example 76] | –
19 | 2.25[a] | – | CC(C)C1Cc2cccc(N)c2C1 (racemic) [Example III-a-1] | –
20 | – | 4.09[a] | CC1Cc2c(NC(=O)c3c(C(F)(F)F)nn(C)c3C(F)F)cccc2C1(C)C (racemic) [Example 81] | –
21 | 2.9[a] | – | CC(C)C1Cc2cccc(N)c2C1C (centres unmarked) [III-a-9] | –
22 | – | 4.46[a] | CCC1Cc2c(NC(=O)c3c(C)nn(C)c3C(F)(F)Cl)cccc2C1(C)C (centres unmarked) [Example 58] | –
23 | – | 4.56[a] | CC(C)c1nn(C)cc1C(=O)Nc1cccc2c1CC(C(C)C)C2(C)C (racemic) [Example 61] | –
24 | – | 4.39[a] | CCCc1nn(C)c(F)c1C(=O)Nc1cccc2c1CC(C)C2(C)C (centres unmarked) [Example 19] | –
25 | 2.54[a] | – | Nc1cccc2c1CC(Cc1ccccc1)C2 (centres unmarked) [Example III-a-8] | –
26 | – | 4.18[a] | CCC1Cc2c(NC(=O)c3cn(C)nc3C(C)C)cccc2C1(C)C (racemic) [Example 67] | –
27 | 1.44[a] | – | CC1Cc2c(N)cccc2C1C (centres unmarked) [Example III-a-13] | –
28 | 2.47[a] | – | CCC1Cc2c(N)cccc2C1(C)C (centres unmarked) [Example III-a-17] | –
29 | – | 3.85[a] | CCC1(CC)Cc2c(NC(=O)c3c(C)nn(C)c3C)cccc2C1C (centres unmarked) [Example 51] | –
30 | – | 5.29[a] | CCCc1nn(C)c(F)c1C(=O)Nc1cccc2c1CC(C(C)C)C2(C)C (racemic) [Example 65] | –
31 | – | 4.2[a] | CCCc1nn(C)cc1C(=O)Nc1cccc2c1CC(CC)C2(C)C (racemic) [Example 64] | –
32 | – | – | CC1c2cccc(N)c2CC12CCCC2 (centres unmarked) [Example III-a-7, 1′-methyl-1′,3′-dihydrospiro[cyclopentane-1,2′-inden]-4′-amine] | chromatographic logP (reversed phase HPLC columns, amines of formula (III-a), Table 2, read-out: logP): 2.39
